Assay: xn = mol fraction of the nth substance listed
Settings: 101 kPa, Liquid; for viscosity: Concentric cylinders viscometry; for mass density: Vibrating tube method

OCCCO [propan-1,3-diol] + c1ccncc1
Settings | mass density [kg/m3] | viscosity [mPa·s]
288.15 K, x2 = 0 | 1056.12 | 66.53
288.15 K, x2 = 0.0999 | 1050.49 | 50.57
288.15 K, x2 = 0.2 | 1044.96 | 35.44
288.15 K, x2 = 0.3 | 1038.93 | 23
288.15 K, x2 = 0.4001 | 1032.58 | 14.29
288.15 K, x2 = 0.5 | 1025.96 | 8.708
288.15 K, x2 = 0.5999 | 1018.97 | 5.207
288.15 K, x2 = 0.7 | 1011.77 | 3.264
288.15 K, x2 = 0.7998 | 1004.3 | 2.111
288.15 K, x2 = 0.8998 | 996.608 | 1.46
293.15 K, x2 = 0 | 1053.02 | 51.91
293.15 K, x2 = 0.0999 | 1047.19 | 39.57
293.15 K, x2 = 0.2 | 1041.48 | 27.99
293.15 K, x2 = 0.3 | 1035.25 | 18.46
293.15 K, x2 = 0.4001 | 1028.71 | 11.68
293.15 K, x2 = 0.5 | 1021.91 | 7.266
293.15 K, x2 = 0.5999 | 1014.73 | 4.467
293.15 K, x2 = 0.7 | 1007.35 | 2.869
293.15 K, x2 = 0.7998 | 999.687 | 1.897
293.15 K, x2 = 0.8998 | 991.803 | 1.336
298.15 K, x2 = 0 | 1049.91 | 41.04
298.15 K, x2 = 0.0999 | 1043.89 | 31.39
298.15 K, x2 = 0.2 | 1037.98 | 22.36
298.15 K, x2 = 0.3 | 1031.55 | 14.91
298.15 K, x2 = 0.4001 | 1024.82 | 9.617
298.15 K, x2 = 0.5 | 1017.85 | 6.147
298.15 K, x2 = 0.5999 | 1010.48 | 3.867
298.15 K, x2 = 0.7 | 1002.91 | 2.54
298.15 K, x2 = 0.7998 | 995.061 | 1.715
298.15 K, x2 = 0.8998 | 986.987 | 1.228
303.15 K, x2 = 0 | 1046.79 | 32.84
303.15 K, x2 = 0.0999 | 1040.57 | 25.21
303.15 K, x2 = 0.2 | 1034.47 | 18.15
303.15 K, x2 = 0.3 | 1027.85 | 12.34
303.15 K, x2 = 0.4001 | 1020.93 | 8.079
303.15 K, x2 = 0.5 | 1013.76 | 5.244
303.15 K, x2 = 0.5999 | 1006.21 | 3.38
303.15 K, x2 = 0.7 | 998.466 | 2.266
303.15 K, x2 = 0.7998 | 990.425 | 1.557
303.15 K, x2 = 0.8998 | 982.158 | 1.132
308.15 K, x2 = 0 | 1043.64 | 26.58
308.15 K, x2 = 0.0999 | 1037.24 | 20.48
308.15 K, x2 = 0.2 | 1030.94 | 14.88
308.15 K, x2 = 0.3 | 1024.12 | 10.26
308.15 K, x2 = 0.4001 | 1017.01 | 6.845
308.15 K, x2 = 0.5 | 1009.66 | 4.549
308.15 K, x2 = 0.5999 | 1001.93 | 2.976
308.15 K, x2 = 0.7 | 994 | 2.033
308.15 K, x2 = 0.7998 | 985.773 | 1.424
308.15 K, x2 = 0.8998 | 977.312 | 1.05
313.15 K, x2 = 0 | 1040.49 | 21.74
313.15 K, x2 = 0.0999 | 1033.89 | 16.82
313.15 K, x2 = 0.2 | 1027.39 | 12.32
313.15 K, x2 = 0.3 | 1020.38 | 8.615
313.15 K, x2 = 0.4001 | 1013.08 | 5.832
313.15 K, x2 = 0.5 | 1005.55 | 3.951
313.15 K, x2 = 0.5999 | 997.629 | 2.636
313.15 K, x2 = 0.7 | 989.518 | 1.835
313.15 K, x2 = 0.7998 | 981.102 | 1.307
313.15 K, x2 = 0.8998 | 972.452 | 0.975
318.15 K, x2 = 0 | 1037.31 | 17.95
318.15 K, x2 = 0.0999 | 1030.51 | 13.94
318.15 K, x2 = 0.2 | 1023.82 | 10.31
318.15 K, x2 = 0.3 | 1016.62 | 7.299
318.15 K, x2 = 0.4001 | 1009.13 | 5.033
318.15 K, x2 = 0.5 | 1001.41 | 3.455
318.15 K, x2 = 0.5999 | 993.305 | 2.35
318.15 K, x2 = 0.7 | 985.015 | 1.663
318.15 K, x2 = 0.7998 | 976.412 | 1.204
318.15 K, x2 = 0.8998 | 967.572 | 0.9082
323.15 K, x2 = 0 | 1034.12 | 14.96
323.15 K, x2 = 0.0999 | 1027.12 | 11.75
323.15 K, x2 = 0.2 | 1020.24 | 8.779
323.15 K, x2 = 0.3 | 1012.83 | 6.286
323.15 K, x2 = 0.4001 | 1005.15 | 4.412
323.15 K, x2 = 0.5 | 997.251 | 3.078
323.15 K, x2 = 0.5999 | 988.961 | 2.139
323.15 K, x2 = 0.7 | 980.49 | 1.53
323.15 K, x2 = 0.7998 | 971.701 | 1.119
323.15 K, x2 = 0.8998 | 962.672 | 0.8532

c1ccncc1 [pyridine] + OCC(O)CO
Settings | mass density [kg/m3] | viscosity [mPa·s]
288.15 K, x1 = 0.1 | 1237.23 | 1518
288.15 K, x1 = 0.2001 | 1209.17 | 853.01
288.15 K, x1 = 0.3001 | 1182.56 | 438.65
288.15 K, x1 = 0.4 | 1156.91 | 202.46
288.15 K, x1 = 0.4998 | 1130.25 | 86.64
288.15 K, x1 = 0.6001 | 1103.35 | 29.67
288.15 K, x1 = 0.6999 | 1075.51 | 7.871
288.15 K, x1 = 0.8001 | 1047.04 | 4.241
288.15 K, x1 = 0.8999 | 1018 | 1.944
288.15 K, x1 = 1 | 988.061 | 1.03
293.15 K, x1 = 0.1 | 1233.99 | 946.3
293.15 K, x1 = 0.2001 | 1205.75 | 539.76
293.15 K, x1 = 0.3001 | 1178.91 | 283.85
293.15 K, x1 = 0.4 | 1153.16 | 135.63
293.15 K, x1 = 0.4998 | 1126.26 | 60.5
293.15 K, x1 = 0.6001 | 1099.12 | 22.37
293.15 K, x1 = 0.6999 | 1071.23 | 6.966
293.15 K, x1 = 0.8001 | 1042.41 | 3.639
293.15 K, x1 = 0.8999 | 1013.18 | 1.748
293.15 K, x1 = 1 | 983.038 | 0.9588
298.15 K, x1 = 0.1 | 1230.73 | 608.94
298.15 K, x1 = 0.2001 | 1202.25 | 352.75
298.15 K, x1 = 0.3001 | 1175.23 | 189.75
298.15 K, x1 = 0.4 | 1149.36 | 93.82
298.15 K, x1 = 0.4998 | 1122.23 | 43.51
298.15 K, x1 = 0.6001 | 1094.86 | 17.25
298.15 K, x1 = 0.6999 | 1066.63 | 6.111
298.15 K, x1 = 0.8001 | 1037.6 | 3.155
298.15 K, x1 = 0.8999 | 1008.34 | –
298.15 K, x1 = 1 | 978.006 | 0.8943
303.15 K, x1 = 0.1 | 1227.44 | 403.56
303.15 K, x1 = 0.2001 | 1198.74 | 237.3
303.15 K, x1 = 0.3001 | 1171.52 | 130.53
303.15 K, x1 = 0.4 | 1145.49 | 66.75
303.15 K, x1 = 0.4998 | 1118.17 | 32.21
303.15 K, x1 = 0.6001 | 1090.58 | 13.57
303.15 K, x1 = 0.6999 | 1062.16 | 5.257
303.15 K, x1 = 0.8001 | 1033.11 | 2.765
303.15 K, x1 = 0.8999 | 1003.49 | 1.439
303.15 K, x1 = 1 | 972.967 | 0.8355
308.15 K, x1 = 0.1 | 1224.12 | 275.49
308.15 K, x1 = 0.2001 | 1195.32 | 164.23
308.15 K, x1 = 0.3001 | 1167.95 | 92.29
308.15 K, x1 = 0.4 | 1141.6 | 48.72
308.15 K, x1 = 0.4998 | 1114.07 | 24.45
308.15 K, x1 = 0.6001 | 1086.27 | 10.87
308.15 K, x1 = 0.6999 | 1057.66 | 4.532
308.15 K, x1 = 0.8001 | 1028.43 | 2.441
308.15 K, x1 = 0.8999 | 998.628 | 1.316
308.15 K, x1 = 1 | 967.913 | 0.7837
313.15 K, x1 = 0.1 | 1220.77 | 192.54
313.15 K, x1 = 0.2001 | 1191.92 | 116.47
313.15 K, x1 = 0.3001 | 1164.44 | 66.86
313.15 K, x1 = 0.4 | 1137.67 | 36.35
313.15 K, x1 = 0.4998 | 1109.95 | 18.9
313.15 K, x1 = 0.6001 | 1081.93 | 8.841
313.15 K, x1 = 0.6999 | 1053.14 | 3.95
313.15 K, x1 = 0.8001 | 1023.73 | 2.172
313.15 K, x1 = 0.8999 | 993.746 | 1.209
313.15 K, x1 = 1 | 962.849 | 0.7354
318.15 K, x1 = 0.1 | 1217.48 | 137.7
318.15 K, x1 = 0.2001 | 1188.63 | 84.41
318.15 K, x1 = 0.3001 | 1160.93 | 49.31
318.15 K, x1 = 0.4 | 1133.7 | 27.66
318.15 K, x1 = 0.4998 | 1105.79 | 14.88
318.15 K, x1 = 0.6001 | 1077.57 | 7.298
318.15 K, x1 = 0.6999 | 1048.59 | 3.463
318.15 K, x1 = 0.8001 | 1019 | 1.944
318.15 K, x1 = 0.8999 | 988.846 | 1.114
318.15 K, x1 = 1 | 957.769 | 0.6912
323.15 K, x1 = 0.1 | 1214.26 | 101.38
323.15 K, x1 = 0.2001 | 1185.34 | 63.12
323.15 K, x1 = 0.3001 | 1157.38 | 38.06
323.15 K, x1 = 0.4 | 1129.71 | 21.58
323.15 K, x1 = 0.4998 | 1101.59 | 12.04
323.15 K, x1 = 0.6001 | 1073.01 | 6.153
323.15 K, x1 = 0.6999 | 1044.02 | 3.06
323.15 K, x1 = 0.8001 | 1014.26 | 1.769
323.15 K, x1 = 0.8999 | 983.927 | 1.038
323.15 K, x1 = 1 | 952.673 | 0.6507
